Data as given in patent US20050095305A1, “Anti-aging agents” (priority 2001, published 2005).

Assays:
Format in all cases: biochemical
[1] = Activity against free radicals, Method A (DPPH° test); settings: optical density at 513 nm
Experimental: (§1) The effectiveness of the test substances against free radicals was tested by various chemical and biochemical methods: • Method A A first test was carried out using diphenylpicrylhydrazyl (DPPH°) which is a relatively stable radical that forms a purple-colored solution. The optical density (DO) at 513 nm was determined. • Method B Hydroxyl radicals were released from hydrogen peroxide in the presence of iron(II) ions and EDTA and were used to oxidize deoxyribose. The oxidation product forms a pink-colored compound with thiobarbituric acid. Its concentration corresponds to the optical density at 532 nm. […] The superoxide anions dismute into hydrogen peroxide and oxygen either spontaneously or in the presence of Superoxid Dismutase. The quantity of superoxide anion can be determined by NBT reduction via the optical density at 490 nm. A test was conducted to determine whether fewer superoxide anions are generated or more anions are destroyed in the presence of the test substances. The results are set out in Table 1 and represent the EC50 values in % (w/v).

[2] = Activity against free radicals, Method B (hydroxyl radicals, deoxyribose oxidation with EDTA); settings: hydrogen peroxide, iron(II) ions and EDTA, optical density at 532 nm
Experimental: as §1

[3] = Activity against free radicals, Method C (deoxyribose oxidation in the absence of EDTA); settings: as Method B in the absence of EDTA
Experimental: as §1

[4] = Activity against free radicals, Method D (xanthine oxidase, NBT reduction); settings: optical density at 490 nm
Experimental: as §1

| Molecule | Effect against free radicals, Method A, EC50 [1] | Effect against free radicals, Method B, EC50 [2] | Effect against free radicals, Method C, EC50 [3] | Effect against free radicals, Method D, EC50 [4] |
| --- | --- | --- | --- | --- |
| O=C1O[C@H]([C@@H](O)CO)C(O)=C1O [Ascorbic acid] | 0.0013 % (w/v) | 0.261 % (w/v) | 0.9 % (w/v) | 0.591 % (w/v) |
| Tocopherol | 0.0067 % (w/v) |  |  | No effect |
